For assay [1], the target named is human GSK-3β (Homo sapiens, UniProt P49841). The assay can be described thus: GSK-3β enzyme inhibition (32P-ATP, phospho-CREB peptide, filter paper). In kind it is biochemical. Conditions: 100 μM ATP, 30° C., 1 hour. The procedure: GSK-3β was prepared by a gene recombination method.
First, primers corresponding to 5′-end and 3′-end of polynucleotide encoding human GSK-3β were designed and synthesized from nucleotide sequence of human GSK-3β (GenBank Reg. No. L33801). Then, the primers were amplified by PCR (polymerase chain reaction) in which a human DNA sequence was employed as a template and treated with restriction enzyme BamH1/XhoI. The resulting gene fragments were inserted into the corresponding identical restriction sites of pGex vector (GE Healthcare Life Science) to prepare an expression vector for transformation of E. coli BL21 (DE3) strain (Invitrogen). The transformed E. coli strain was inoculated to LB medium (1% Bacto tryptone, 0.5% yeast extract, 1% sodium chloride) and cultured until the optical density of the bacterial cells was about 0.5 at 600 nm and 37° C. Then, IPTG (isopropyl-β-D-thiogalactoside) was added thereto to a final concentration to 0.5 mM at 18° C. 16 hours after IPTG addition, the cells were subjected to centrifugation at 10,000×g for 10 mins and cell precipitates were collected. The cell precipitates were suspended in a buffer solution (30 mM tris-HCl (pH 7.5), 100 mM NaCl, 5% glycerol, 2 mM DTT) and the cells were smashed in an ice bath using a Sonic Dismembrator (Fisher, USA). The resulting solution was centrifuged at 16,000 rpm for 30 mins.
The supernatant obtained above was introduced to a pre-equilibrated GST column (Pharmacia, USA) and eluted by 5 mM glutachione. The effuent was subjected to SDS-PAGE and GSK-3β protein was collected. GST protein was cutt using thrombin. The GSK-3β protein thus obtained was diluted with a buffer solution (20 mM HEPES (pH 7.5), 5% glycerol, 2 mM DTT) until the concentration of NaCl reached 50 mM. The diluted solution was introduced to Mono S column (Pharmacia, USA) equilibrated with the above buffer solution and eluted with a aqueous NaCl while changing the concentration from 0 to 1 M NaCl, and GSK-3β protein was collected by a electrophoresis. The purified protein was used in the analysis for the activity for enzyme activity.
The enzyme reaction was conducted in a buffer solution (50 mM of tris-HCl (pH 7.5), 10 mM of MgCl2, 1 mM of EGTA, 1 mM of EDTA and 1 mM of DTT). 100 μM of phosho-CREB peptide (NEB, USA), 100 μM of ATP and 1 μCi of ^32P-ATP were added to the buffer solution as substrates. And then 100 nM of recombinant GSK-3β was added thereto and the mixture was reacted at 30° C. for 1 hour. The reaction was terminated by the addition of 5 μl of 5% phosphoric acid solution to 25 μl of the reaction mixture. The resulting solution was subjected to centrifugation at 15,000 for 10 mins and 20 μl of the supernatant thus obtained was dropped on whatman p81 filter paper. The filter paper was washed in 0.5% phosphoric acid solution for 10 mins. After repeating the washing 3 times, the filter paper was dried and its cpm (counter per mins) was assessed.
The test solution prepared above by dissolving a test compound in DMSO was added to the reaction solution in an amount of less than 5% based on the total reaction solution to analyze the capacity for enzyme inhibitory activity.

Assay [2] concerns the target T1, Aurora Kinase A (Homo sapiens, UniProt O14965).
T1 construct: purchased Upstate
T1 sequence (O14965 1-403): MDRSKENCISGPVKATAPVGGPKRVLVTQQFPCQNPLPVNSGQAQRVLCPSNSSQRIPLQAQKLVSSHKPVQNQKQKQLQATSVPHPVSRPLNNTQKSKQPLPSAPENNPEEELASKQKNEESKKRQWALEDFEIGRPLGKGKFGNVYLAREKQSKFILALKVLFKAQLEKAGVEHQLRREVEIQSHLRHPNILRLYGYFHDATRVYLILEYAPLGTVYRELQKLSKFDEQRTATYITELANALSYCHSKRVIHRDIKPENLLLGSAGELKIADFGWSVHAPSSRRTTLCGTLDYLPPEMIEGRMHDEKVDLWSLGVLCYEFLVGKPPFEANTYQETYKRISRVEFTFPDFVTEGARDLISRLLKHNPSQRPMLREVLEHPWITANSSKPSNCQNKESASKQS
The assay can be described thus: Aurora kinase A enzyme inhibition (Kemptide, Kinase glo). Conditions: 1 μM ATP. The format is biochemical. How it is done: The test solution prepared above by dissolving a test compound in DMSO was added to the reaction solution in an amount of less than 5% based on the total reaction solution to analyze the capacity for enzyme inhibitory activity. The cpm value obtained when the test compounds was present relative to the cpm value in the absence of the test compound was represented by percentage, and IC50 (μM) was determined as the concentration of the test compound required to inhibit the enzyme activity by 50% relatively to the control solution.
A test solution was prepared by dissolving one of the compounds of the Examples in DMSO at a concentration of 12.5 mM. Enzyme reaction was conducted in a buffer solution containing 20 mM of HEPES (pH 7.5), 5 mM MgCl2, 0.5 mM ethylene glycol bis(b-aminoethylether) tetraacetic acid (EGTA), 200 mM of KCl, 1 mM of DTT and 0.05% triton X-100. 100 μM of Kemptide peptide (Upstate) and 1 μM of ATP were added to the buffer solution as substrates. Recombinant aurora kinase (Upstate) was added the resulting mixture at a concentration of 10 nM and reaction was carried out at 30° C. for 1 hour. 25 μl of the resulting solution was mixed with 25 μl of Kinase glo (promega), thereby inducing the second reaction by luciferase. The amount of remained ATP was measured by fusion a-FP (Packard, USA). Inhibitory capacities of the test compounds for the enzyme activity were assessed according to the same method as in GSK-3β analysis, and IC50 value was calculated.

The structures appear in SMILES notation.

Chain of human GSK-3β (P49841 whole entry, the tested form may be a part): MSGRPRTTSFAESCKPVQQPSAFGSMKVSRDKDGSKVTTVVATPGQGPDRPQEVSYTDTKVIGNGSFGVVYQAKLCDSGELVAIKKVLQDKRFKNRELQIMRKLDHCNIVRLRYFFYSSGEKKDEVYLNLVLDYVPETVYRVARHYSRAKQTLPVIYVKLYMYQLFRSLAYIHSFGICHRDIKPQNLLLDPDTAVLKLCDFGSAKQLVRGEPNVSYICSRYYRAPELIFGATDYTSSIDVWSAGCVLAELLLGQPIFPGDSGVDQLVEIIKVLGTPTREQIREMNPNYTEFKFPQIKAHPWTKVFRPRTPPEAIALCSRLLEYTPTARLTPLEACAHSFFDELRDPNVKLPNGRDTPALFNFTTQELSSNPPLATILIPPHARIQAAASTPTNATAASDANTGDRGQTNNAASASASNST

As for `Cc1ccncc1NC(=O)c1ccnc2[nH]c(-c3ccc(N4CCCC4)cc3)nc12` [Example 332, 2-(4-pyrrolidin-1-yl-phenyl)-3H-imidazo[4,5-b]pyridine-7-carboxylic acid(4-methyl-pyridin-3-yl)-amide], the IC50 in assay [1] stood at 12 nM.
In assay [2], `CN(C)CCOc1ccncc1NC(=O)c1ccnc2[nH]c(-c3ccc(F)cc3)nc12` [Example 313, 2-(4-fluoro-phenyl)-3H-imidazo[4,5-b]pyridine-7-carboxylic acid[4-(2-dimethylamino-ethoxy)-pyridin-3-yl]-amide] displayed an IC50 of 1100 nM.
The same measure, in the same setting: next, `O=C(NC1C2CC3CC(C2)CC1C3)c1ccnc2[nH]c(-c3ccc(F)cc3)nc12` (centres unmarked) [Example 264, 2-(4-fluoro-phenyl)-3H-imidazo[4,5-b]pyridine-7-carboxylic acid adamantan-2-ylamide]: 70 nM.
`CN1CCN(c2ccc(-c3nc4c(C(=O)Nc5cccnc5)ccnc4[nH]3)cc2)CC1` [Example 327, 2-[4-(4-methyl-piperazin-1-yl)-phenyl]-3H-imidazo[4,5-b]pyridine-7-carboxylic acid pyridin-3-ylamide]: the IC50 in assay [1] stood at 50 nM.
Same read-out and setting: next, `O=C(NCCCc1ccncc1)c1ccnc2[nH]c(-c3cccs3)nc12` [Example 109, 2-thiophen-2-yl-3H-imidazo[4,5-b]pyridine-7-carboxylic acid(3-pyridin-4-yl-propyl)-amide]: 52 nM.
`CCOc1ccncc1NC(=O)c1ccnc2[nH]c(-c3ccc(OC)cc3)nc12` [Example 425, 2-(4-methoxy-phenyl)-3H-imidazo[4,5-b]pyridine-7-carboxylic acid(4-ethoxy-pyridin-3-yl)-amide] registered a 50% inhibitory concentration (IC50) in assay [2] above 6000 nM.
Same read-out and setting: next, `CC1(C)C2CC[C@@]1(C)[C@@H](NC(=O)c1ccnc3[nH]c(-c4ccc(NCCN5CCOCC5)cc4)nc13)C2` [Example 368, 2-[4-(2-morpholin-4-yl-ethylamino)-phenyl]-3H-imidazo[4,5-b]pyridine-7-carboxylic acid(1,7,7-trimethyl-bicyclo[2.2.1]heptin-2-yl)-amide]: 40 nM.
On to `CC(=O)Nc1ccc(CCNC(=O)c2ccnc3[nH]c(-c4ccc(Cl)cc4)nc23)cc1` [Example 44, 2-(4-chloro-phenyl)-3H-imidazo[4,5-b]pyridine-7-carboxylic acid[2-(4-acetylamino-phenyl)-ethyl]-amide], for which the IC50 in assay [1] worked out at 38 nM.
As to `CCOc1cc(C)ncc1NC(=O)c1ccnc2[nH]c(-c3ccc(N4CCN(C)CC4)cc3)nc12` [Example 423, 2-[4-(4-methyl-piperazin-1-yl)-phenyl]-3H-imidazo[4,5-b]pyridine-7-carboxylic acid(4-ethoxy-6-methyl-pyridin-3-yl)-amide], half-maximal inhibition in assay [2] (IC50) was put at 105 nM.
As for `CC(=O)Nc1ccc(CCNC(=O)c2ccnc3[nH]c(-c4ccccc4)nc23)cc1` [Example 1, 2-phenyl-3H-imidazo[4,5-b]-pyridine-7-carboxylic acid [2-(4-acetylamino-phenyl)-ethyl]-amide], the IC50 in assay [1] worked out at 20 nM.
In assay [2], `CCSc1ccncc1NC(=O)c1ccnc2[nH]c(-c3ccc(N4CCN(C)CC4)cc3)nc12` [Example 418, 2-[4-(4-methyl-piperazin-1-yl)-phenyl]-3H-imidazo[4,5-b]pyridine-7-carboxylic acid(4-ethylsulfanyl-pyridin-3-yl)-amide] had an IC50 of 200 nM.
Compound `CCN(CC)C1CCN(c2ccc(-c3nc4c(C(=O)Nc5ccc(C)nc5)ccnc4[nH]3)cc2)C1` (centres unmarked) [Example 409, 2-[4-(3-diethylamino-pyrrolidin-1-yl)-phenyl]-3H-imidazo[4,5-b]pyridine-7-carboxylic acid(6-methyl-pyridin-3-yl)-amide] came in with an IC50 in assay [2] of 250 nM.
Take `CCSc1ccncc1NC(=O)c1ccnc2[nH]c(-c3ccc(Cl)cc3)nc12` [Example 61, 2-(4-chloro-phenyl)-3H-imidazo[4,5-b]pyridine-7-carboxylic acid(4-ethylsulfanyl-pyridin-3-yl)-amide]: the half-inhibitory concentration (IC50) in assay [1] was found to be 3 nM.
Still for that read-out and setting: next, `CCOc1ccncc1NC(=O)c1ccnc2[nH]c(-c3ccc(N4CCCC4)cc3)nc12` [Example 404, 2-(4-pyrrolidin-1-yl-phenyl)-3H-imidazo[4,5-b]pyridine-7-carboxylic acid(4-ethoxy-pyridin-3-yl)-amide]: 3 nM; `CCOc1cc(C)ncc1NC(=O)c1ccnc2[nH]c(-c3ccc(F)cc3)nc12` [Example 325, 2-(4-fluoro-phenyl)-3H-imidazo[4,5-b]pyridine-7-carboxylic acid(4-ethoxy-6-methyl-pyridin-3-yl)-amide]: 2 nM.
The compound `CCC(C)(C)NC(=O)c1ccnc2[nH]c(-c3ccc(NCCN(C)C)cc3)nc12` [Example 381, 2-[4-(2-dimethylamino-ethylamino)-phenyl]-3H-imidazo[4,5-b]pyridine-7-carboxylic acid(1,1-dimethyl-propyl)-amide] returned an IC50 in assay [2] of 33 nM.
Still for that read-out and setting: next, `CN1CCN(c2ccc(-c3nc4c(C(=O)NC5CC6CCC5C6)ccnc4[nH]3)cc2)CC1` (centres unmarked) [Example 371, 2-[4-(4-methyl-piperazin-1-yl)-phenyl]-3H-imidazo[4,5-b]pyridine-7-carboxylic acid bicyclo[2.2.1]heptin-2-ylamide]: 113 nM.

Source of the values: US20090170847A1, “Imidazopyridine Derivatives Inhibiting Protein Kinase Activity, Method for the Preparation Thereof and Pharmaceutical Composition Containing Same” (priority 2006, published 2009).
